Two compounds from paper PMC11467302, “Discovery of a potent, Kv7.3-selective potassium channel opener from a Polynesian traditional botanical anticonvulsant” (Communications Chemistry, 2024) can be followed below.

The structures appear in SMILES notation. pEC50: −log10 of the molar value.

Holding throughout (type): cell-based
Test [1] deals with T1, Kv7.3 (Homo sapiens, UniProt O43525).
T1 construct: gene KCNQ3; Kv7.2/3 heteromer expressed in Xenopus oocytes; with Kv7.2 (KCNQ2)
Nature of the test: two-electrode voltage clamp at […], shift of V0.5act.

Test [2] addresses T2, Kv7.3* (Homo sapiens, UniProt O43525, A315T).
T2 construct: gene KCNQ3; Kv7.3* homomer expressed in Xenopus oocytes
T2 sequence (O43525 1-872 A315T): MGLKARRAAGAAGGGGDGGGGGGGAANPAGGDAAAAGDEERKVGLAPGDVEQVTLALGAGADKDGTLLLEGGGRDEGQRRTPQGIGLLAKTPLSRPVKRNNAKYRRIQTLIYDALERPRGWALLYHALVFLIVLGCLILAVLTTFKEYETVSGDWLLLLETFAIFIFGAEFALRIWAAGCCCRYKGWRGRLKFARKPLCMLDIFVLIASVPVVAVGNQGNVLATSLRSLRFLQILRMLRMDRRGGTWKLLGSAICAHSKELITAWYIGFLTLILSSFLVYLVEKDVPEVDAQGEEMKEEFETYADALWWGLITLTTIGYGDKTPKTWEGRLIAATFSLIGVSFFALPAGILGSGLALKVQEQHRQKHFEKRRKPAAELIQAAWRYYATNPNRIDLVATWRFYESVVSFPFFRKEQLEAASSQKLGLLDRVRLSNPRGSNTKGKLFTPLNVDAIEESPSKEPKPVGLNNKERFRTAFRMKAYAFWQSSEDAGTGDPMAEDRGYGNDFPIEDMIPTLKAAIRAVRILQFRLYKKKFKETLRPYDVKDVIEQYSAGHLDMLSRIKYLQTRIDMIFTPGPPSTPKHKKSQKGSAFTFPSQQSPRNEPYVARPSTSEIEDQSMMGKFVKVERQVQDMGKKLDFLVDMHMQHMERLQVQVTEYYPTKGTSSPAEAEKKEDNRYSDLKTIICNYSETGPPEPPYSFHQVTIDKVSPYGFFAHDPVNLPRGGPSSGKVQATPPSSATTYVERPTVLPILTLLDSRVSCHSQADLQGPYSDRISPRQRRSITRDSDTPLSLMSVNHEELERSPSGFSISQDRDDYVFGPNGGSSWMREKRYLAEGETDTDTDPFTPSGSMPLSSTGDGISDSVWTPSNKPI
Nature of the test: two-electrode voltage clamp, shift of V0.5act, dose response.

For test [3], the target named is T1, Kv7.3. The description is as above.

T1 sequence (O43525 whole entry): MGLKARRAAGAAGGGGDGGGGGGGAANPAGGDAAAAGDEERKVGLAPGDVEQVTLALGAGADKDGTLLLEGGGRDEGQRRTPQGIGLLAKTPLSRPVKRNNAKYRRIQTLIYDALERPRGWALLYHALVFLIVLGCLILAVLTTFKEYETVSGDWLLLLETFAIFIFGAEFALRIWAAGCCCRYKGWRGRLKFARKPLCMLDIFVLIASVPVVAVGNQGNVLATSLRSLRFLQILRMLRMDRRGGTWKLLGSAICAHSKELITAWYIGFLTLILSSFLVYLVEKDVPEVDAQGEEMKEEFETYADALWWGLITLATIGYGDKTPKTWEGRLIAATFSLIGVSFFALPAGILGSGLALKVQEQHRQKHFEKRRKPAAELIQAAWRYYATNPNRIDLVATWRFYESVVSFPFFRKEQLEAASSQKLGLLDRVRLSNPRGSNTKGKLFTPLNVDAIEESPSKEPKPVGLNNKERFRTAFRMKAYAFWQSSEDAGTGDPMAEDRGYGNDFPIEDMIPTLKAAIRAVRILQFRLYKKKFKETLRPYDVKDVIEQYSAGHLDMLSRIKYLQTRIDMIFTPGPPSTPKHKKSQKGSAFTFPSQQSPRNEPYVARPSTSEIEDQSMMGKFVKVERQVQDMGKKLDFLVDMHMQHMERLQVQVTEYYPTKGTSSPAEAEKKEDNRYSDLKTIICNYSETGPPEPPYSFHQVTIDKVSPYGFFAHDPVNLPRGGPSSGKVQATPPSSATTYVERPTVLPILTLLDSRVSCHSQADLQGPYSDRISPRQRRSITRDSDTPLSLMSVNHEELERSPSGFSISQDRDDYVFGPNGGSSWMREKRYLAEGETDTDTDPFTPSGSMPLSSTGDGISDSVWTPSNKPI
T1 sequence (O43526 whole entry partner): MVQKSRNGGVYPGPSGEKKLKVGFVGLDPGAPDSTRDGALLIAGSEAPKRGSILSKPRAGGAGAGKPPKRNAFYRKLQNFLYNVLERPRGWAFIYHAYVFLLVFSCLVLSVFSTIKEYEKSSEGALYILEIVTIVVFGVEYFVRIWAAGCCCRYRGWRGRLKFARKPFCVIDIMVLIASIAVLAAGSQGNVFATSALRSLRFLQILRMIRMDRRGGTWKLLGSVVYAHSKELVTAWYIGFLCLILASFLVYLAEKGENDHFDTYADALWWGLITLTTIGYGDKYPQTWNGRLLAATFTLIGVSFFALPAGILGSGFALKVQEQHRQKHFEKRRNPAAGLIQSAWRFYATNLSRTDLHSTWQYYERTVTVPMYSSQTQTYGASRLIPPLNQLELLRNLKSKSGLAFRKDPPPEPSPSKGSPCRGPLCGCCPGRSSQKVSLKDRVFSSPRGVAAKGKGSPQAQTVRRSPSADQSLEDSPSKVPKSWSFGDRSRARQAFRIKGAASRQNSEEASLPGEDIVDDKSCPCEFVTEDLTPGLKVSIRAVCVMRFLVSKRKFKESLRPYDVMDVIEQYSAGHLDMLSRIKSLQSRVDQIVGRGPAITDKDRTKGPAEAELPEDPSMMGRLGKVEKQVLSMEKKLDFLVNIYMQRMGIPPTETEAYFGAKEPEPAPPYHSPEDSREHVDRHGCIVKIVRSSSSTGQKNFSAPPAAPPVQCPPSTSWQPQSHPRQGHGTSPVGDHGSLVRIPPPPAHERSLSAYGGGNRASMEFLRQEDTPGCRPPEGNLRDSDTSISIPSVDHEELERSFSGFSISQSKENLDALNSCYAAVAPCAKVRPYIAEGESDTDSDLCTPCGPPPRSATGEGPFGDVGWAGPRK

`O=S(=O)(O)c1cc(O)ccc1O` [calcium dobesilate]: in test [1], the “two-electrode voltage clamp at 100 μM, shift of V0.5act” value is “one analog of GA did exhibit similar efficacy to that of GA—the sulfonic acid, calcium dobesilate”.
`O=C(O)c1cc(O)ccc1O` [GA, gentisic acid]: the pEC50 in test [2] is 9.10; in test [3] it was 8.55.
